The values below come from publication PMC6986439, “Sultiame pharmacokinetic profile in plasma and erythrocytes after single oral doses: A pilot study in healthy volunteers” (Pharmacology Research & Perspectives, 2020).

SMILES strings stand for the structures. “And” between values parts separate entries of the source, which are not always exact repeats. Equal entries are not always repeated. Where two headings read alike, the source gives them in different places.

Data set [1] is described as follows: Population PK compartmental analysis (two-compartment model with saturable ligand to receptor binding). The data set is classed as in vivo, human. How it is done:
A population PK analysis was also performed using a nonlinear mixed‐effect modeling approach (NONMEM version 7.4, ICON Development Solutions, Hanover MD, USA). […] The model was expressed in terms of differential equations and first‐order rate constants of absorption (ka), elimination (ke), association with (kon) and dissociation from (koff) receptors, maximal binding capacity (Btot), apparent central volume of distribution (Vc/F), and erythrocytes’ volume of distribution (Very). Note that Very actually encompasses the volume of all types of cells containing receptors, assumed to tally with the sampled erythrocytes. Plasma protein binding was assumed constant over the whole range of observed concentrations. Renal extraction fraction (Qren) was added to characterize urine excretion with an additional compartment for urine data. Values of kon and koff characterized in vitro at different temperatures were used as initial estimates and the value of kon to 2018 µM^−1 h^−1 at 37°C fixed in the in vivo model. F was not evaluated, making the model estimate apparent values for Vc/F and CL/F. The first‐order elimination rate constant from the central compartment was calculated as ke = (CL/F)/(Vc/F). The first value below the LLOQ was equaled to LLOQ/2 and subsequent nonquantifiable values were discarded (M6 method).12 Details concerning differential equations and model building steps and adjustment are available in Supplemental material.
Figure 1 Compartmental model accounting for nonlinearity of distribution. Aa, amount of sultiame at the absorption site; Ap, amount of sultiame in plasma and central compartment; Vc, central volume of distribution; Aery, amount of sultiame in the cells, assumed to be bound to receptors; Very, cellular volume of distribution; ka, absorption rate constant; ke, elimination rate constant; kon, constant of association onto receptors binding sites; koff, constant of dissociation from the binding site; Bbound, amount of occupied receptors, assumed equal to Aery; Bfree, amount of free binding sites; Btot, sultiame maximal binding capacity (mg); Qren, renal fraction of the elimination rate; Foral, oral bioavailability, assumed equal to 1
A stepwise procedure was used to identify the model that best fitted the data, comparing two‐, three‐, and four‐compartmental models (peripheral or separate intracellular compartments for free and bound sultiame), and other nonlinear models (Bmax sigmoid model). Exponential errors were used for the description of between‐subject variability (BSV) of PK parameters. Proportional, additive, and mixed error models were compared to describe the residual variability. The stability and internal validity of the final model were assessed by means of standard procedures, detailed in Supplemental material. Covariates were not analyzed due to the limited number of subjects included.
Our population PK analysis used a non-linear mixed effect two-compartment model with first-order absorption incorporating a saturable ligand to receptor binding. We fitted it to our data with the NONMEM software (version 7.4, ICON Development Solutions, Hanover MD, USA), using the ADVAN13 subroutine.
Notice that Aery simultaneously expresses the amount of binding sites occupied by sultiame (Bbound). Thus, the amount of free binding sites corresponds to Bfree = (Btot – Aery), and the model only needs the parameter Btot to characterize the size of the saturable compartment associated to receptor binding (in mg of sultiame). The values of kon and koff characterized in vitro at 37°C were used in the in vivo model as initial estimates, and the kon was fixed to 2018 µM^-1· h^-1.
The model was fitted to the data using first order conditional estimation (FOCE) to obtain values for the eight model parameters listed above. […]

Data set [2] in a line: Safety and tolerability assessments in healthy volunteers. The data set is classed as in vivo, human. How it is done: All adverse events were recorded with an evaluation of their severity and imputability to the study drug. Each volunteer received a full medical examination at screening and at the end of the study. Visual analogue scales (VAS) on paper support recorded the intensity of 12 potential symptoms (abdominal pain, appetite, nausea, taste of sparkling water, fatigue, headache, dyspnea, dizziness, paresthesia, difficulty in concentration, irritability, and depression) predrug (0 hour) at 0.5, 1, 2, 4, 6, 8, 10, and 24 hours postdose. Vital signs (supine blood pressure, heart rate, body temperature, and respiratory frequency) were measured predose and at 1, 2, 4, 6, 8, 10, and 24 hours postdose. Laboratory parameters, drug screen, and urinalysis were performed at screening and at study end.

Setting [3] is: population estimate of final model.
The mark [4] stands for this setting: single oral doses 50, 100, 200 mg.

By koff is commonly meant the rate constant with which the complex falls apart. Usually kon stands for the rate constant with which the complex forms. Take `NS(=O)(=O)c1ccc(N2CCCCS2(=O)=O)cc1` [Sultiame]: in data set [1] (bootstrap evaluation, median), the Btot was found to be 111 mg, the QRen is given as 28.8%, the Vc was 64.8 L and the Very came out at 3.27 L. In data set [1] (bootstrap evaluation, median), the ka was determined as 1.88 h⁻¹ and the koff is 2.244 s⁻¹. Also, the kon in data set [1] (bootstrap evaluation, median, fixed) was determined as 560600 M⁻¹ s⁻¹. For the same compound, in data set [1] (final population model, read-out: estimated kD of final model (koff/kon)), the Kd is 4 µM. In addition, the Vd in data set [1] (male, human, erythrocytes, oral, population estimate of final model, read-out: Very, cell (erythrocyte compartment) volume of distribution) was 3.3 L. For the same compound, the Vd in data set [1] (male, human, plasma, oral, population estimate of final model, read-out: Vc, central volume of distribution) is 64.8 L. Moreover, in data set [1] (male, human, plasma, oral, bootstrap evaluation, median of 2000 replicates, read-out: CLplasma (converted)), the clearance was 166 mL/min. In data set [1] (not estimated but fixed in the in vivo model to the in vitro value at 37°C), the “kon, association constant” value is 560600 M⁻¹ s⁻¹. In data set [1] (setting [3]), the “Btot, maximal binding capacity” value is recorded as 111 mg; the “QRen, fraction eliminated by renal route” value is 28.8%; the “Very, cell (erythrocyte compartment) volume of distribution” value is 3.27 L; the “ka, constant of absorption” value is 1.88 h⁻¹. Besides, in data set [1] (setting [3]), the “koff, dissociation constant” value is 2.244 s⁻¹. Besides, in data set [1] (population estimate of final model, oral 50, 100, 200 mg), the “CLplasma, apparent plasma clearance (CL/F)” value was 10.0 L/h and 9.95 L/h. In addition, the “transient facial and limb paresthesia” value in data set [2] (after intake of the highest dose of 200 mg, four subjects) is recorded as “reported by three subjects”. Moreover, in data set [2] (setting [4]), the “gastrointestinal and central nervous system tolerance using VAS” value was “limited impact”; the “symptom most frequently reported” value was “Fatigue”. Further, in data set [2] (single oral doses 50, 100, 200 mg, four subjects), the “severe or serious adverse events” value is “No severe or serious adverse events were reported”.
